Among the data in patent US9242996B2 (Novartis AG, priority 2013, dated 2016) are IC50 values, retold here.

One may read the IC50 as the concentration at which inhibition is half-maximal. Low values mean inhibition by little substance, high ones a need for much substance.

activated ERK2, sequence (P28482 whole entry): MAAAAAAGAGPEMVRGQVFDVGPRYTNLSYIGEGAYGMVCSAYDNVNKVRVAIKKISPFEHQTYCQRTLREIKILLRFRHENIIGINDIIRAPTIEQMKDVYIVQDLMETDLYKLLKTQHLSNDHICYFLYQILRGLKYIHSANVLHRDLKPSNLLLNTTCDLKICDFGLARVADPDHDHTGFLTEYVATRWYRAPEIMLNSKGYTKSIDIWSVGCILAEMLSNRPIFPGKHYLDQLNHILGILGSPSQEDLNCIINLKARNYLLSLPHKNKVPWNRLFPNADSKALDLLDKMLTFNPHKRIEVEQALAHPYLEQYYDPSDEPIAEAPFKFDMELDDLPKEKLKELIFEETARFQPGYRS

This test concerns the target activated ERK2 (Homo sapiens (Human), UniProt P28482). Kind of test: Activated ERK2 (20 pM) Kinase Assay (AlphaScreen, ERKtide phosphorylation). Type of test: biochemical. As to conditions: 0.02 nM ERK2, 400 nM ERKtide peptide, 35 μM ATP, 30 min preincubation. How it is done: Activated ERK2 (20 pM) Kinase Assay:
The assay was carried out in 20 mM HEPES [pH 7.5], 5 mM MgCl2, 1 mM DTT, 0.01% Tween-20, 0.05% BSA using 0.02 nM ERK2, 400 nM ERKtide peptide and 35 μM ATP (all concentrations are final in the reaction) in a total volume of 10.25 μL. […] Compound dilution series were prepared in 100% DMSO. ERK2 was preincubated with compounds for 30 minutes at ambient temperature. Reaction was initiated by addition of a substrate cocktail of ERKtide peptide and ATP and was allowed to proceed for 4 hours at ambient temperature. Reaction was terminated by addition of 10 μL of a 2× stop buffer consisting of 100 mM Tris-Cl [pH 7.5], 25 mM EDTA, 0.01% Tween 20, 20 μg/mL of AlphaScreen Protein A Acceptor Beads, 20 μg/mL of Streptavidin Donor Beads (PerkinElmer, Waltham, Mass.), and 1:1000 dilution phospho-EGF Receptor (Thr669) antibody (Cat #8808, Cell Signaling Technology, Danvers, Mass.). Terminated reactions were read, after overnight incubation in the dark, on an EnVision Multilabel Plate Reader (PerkinElmer, Waltham, Mass.), with excitation and emission wavelengths set to 680 nm and 570 nm, respectively. IC50 values were determined using a four-parameter fit.
(In general: Bead proximity is the source of the signal in Alpha formats.)
As to `Cc1c(-c2cnc(N)c(-c3ccc(C(=O)N[C@H](CO)c4cc(F)cc(CF)c4)c(F)c3)c2)cnn1C` [Example 242, (S)-4-(2-amino-5-(1,5-dimethyl-1H-pyrazol-4-yl)pyridin-3-yl)-2-fluoro-N-(1-(3-fluoro-5-(fluoromethyl)phenyl)-2-hydroxyethyl) benzamide], half-maximal inhibition (IC50) required 0.00875 nM. This counts as picomolar.

Regarding `Cc1nn(C)cc1-c1cnc(N)c(-c2ccc(C(=O)N[C@H](CO)c3cc(F)cc(CF)c3)c(F)c2)c1` [Example 243, (S)-4-(2-amino-5-(1,3-dimethyl-1H-pyrazol-4-yl)pyridin-3-yl)-2-fluoro-N-(1-(3-fluoro-5-(fluoromethyl)phenyl)-2-hydroxyethyl) benzamide], half-maximal inhibition (IC50) required 0.0121 nM. This IC50 and that of the molecule before are within 1.5-fold of each other. With `Cn1cc(-c2cnc(N)c(-c3ccc(C(=O)N[C@H](CO)C4CCCCC4)c(F)c3)c2)cn1` [Example 244, (S)-4-(2-amino-5-(1-methyl-1H-pyrazol-4-yl)pyridin-3-yl)-N-(1-cyclohexyl-2-hydroxyethyl)-2-fluorobenzamide] the figure was 157 nM. For the molecule `Cn1cc(-c2cnc(N)c(-c3ccc(C(=O)N[C@H](CO)c4cc(F)cc(C(F)F)c4)c(F)c3)c2)cn1` [Example 253, (S)-4-(2-amino-5-(1-methyl-1H-pyrazol-4-yl)pyridin-3-yl)-N-(1-(3-(difluoromethyl)-5-fluorophenyl)-2-hydroxyethyl)-2-fluorobenzamide], the half-maximal inhibitory concentration (IC50) came to 0.106 nM. The molecule `Cn1nccc1-c1cnc(N)c(-c2ccc(C(=O)N[C@H](CO)c3cccc(CF)c3)c(F)c2)c1` [Example 254, (S)-4-(2-amino-5-(1-methyl-1H-pyrazol-5-yl)pyridin-3-yl)-2-fluoro-N-(1-(3-(fluoromethyl)phenyl)-2-hydroxyethyl) benzamide] registered an IC50 of 0.0599 nM.

For the molecule `Cc1nn(C)cc1-c1cnc(N)c(-c2ccc(C(=O)N[C@H](CO)c3cccc(CF)c3)c(F)c2)c1` [Example 255, (S)-4-(2-amino-5-(1,3-dimethyl-1H-pyrazol-4-yl)pyridin-3-yl)-2-fluoro-N-(1-(3-(fluoromethyl)phenyl)-2-hydroxyethyl) benzamide], inhibition was half-maximal at 0.0287 nM (IC50). This IC50 is about 2.1-fold lower than that of the molecule before.

Molecule `Cc1c(-c2cnc(N)c(-c3ccc(C(=O)N[C@H](CO)c4cccc(CF)c4)c(F)c3)c2)cnn1C` [Example 256, (S)-4-(2-amino-5-(1,5-dimethyl-1H-pyrazol-4-yl)pyridin-3-yl)-2-fluoro-N-(1-(3-(fluoromethyl)phenyl)-2-hydroxyethyl) benzamide] gave an IC50 of 0.0258 nM.

The molecule `Nc1ncc(C2CCOCC2)nc1-c1ccc(C(=O)N[C@H](CO)c2cccc(CF)c2)c(F)c1` [Example 257, (S)-4-(3-amino-6-(tetrahydro-2H-pyran-4-yl)pyrazin-2-yl)-2-fluoro-N-(1-(3-(fluoromethyl)phenyl)-2-hydroxyethyl) benzamide] came in with a 50% inhibitory concentration (IC50) of 0.0197 nM. In the case of `Nc1ncc(C2CCOCC2)nc1-c1ccc(C(=O)N[C@H](CO)c2cccc(Br)c2)c(F)c1` [Example 258, (S)-4-(3-amino-6-(tetrahydro-2H-pyran-4-yl)pyrazin-2-yl)-N-(1-(3-bromophenyl)-2-hydroxyethyl)-2-fluorobenzamide], half-maximal inhibition (IC50) required 0.0343 nM. The molecule `Nc1ncc(C2CCOCC2)nc1-c1ccc(C(=O)N[C@H](CO)c2cc(F)cc(Br)c2)c(F)c1` [Example 259, (S)-4-(3-amino-6-(tetrahydro-2H-pyran-4-yl)pyrazin-2-yl)-N-(1-(3-bromo-5-fluorophenyl)-2-hydroxyethyl)-2-fluorobenzamide] returned a half-maximal inhibitory concentration (IC50) of 0.0127 nM. In the case of `Cc1c(-c2cnc(N)c(-c3ccc(C(=O)N[C@H](CO)c4cccc(CF)c4)c(F)c3)c2)cnn1C(F)F` [Example 260, (S)-4-(2-amino-5-(1-(difluoromethyl)-5-methyl-1H-pyrazol-4-yl)pyridin-3-yl)-2-fluoro-N-(1-(3-(fluoromethyl)phenyl)-2-hydroxyethyl) benzamide], the midpoint of inhibition, the IC50, lay at 0.0208 nM. As for `Cc1nn(C(F)F)cc1-c1cnc(N)c(-c2ccc(C(=O)N[C@H](CO)c3cccc(CF)c3)c(F)c2)c1` [Example 261, (S)-4-(2-amino-5-(1-(difluoromethyl)-3-methyl-1H-pyrazol-4-yl)pyridin-3-yl)-2-fluoro-N-(1-(3-(fluoromethyl)phenyl)-2-hydroxyethyl) benzamide], half-maximal inhibition (IC50) was put at 0.0168 nM. Molecule `Cc1c(-c2cnc(N)c(-c3ccc(C(=O)N[C@H](CO)c4cc(F)cc(CF)c4)c(F)c3)c2)cnn1C(F)F` [Example 262, (S)-4-(2-amino-5-(1-(difluoromethyl)-5-methyl-1H-pyrazol-4-yl)pyridin-3-yl)-2-fluoro-N-(1-(3-fluoro-5-(fluoromethyl)phenyl)-2-hydroxyethyl) benzamide] registered an IC50 of 0.014 nM. The IC50 values of the last two molecules are within 1.5-fold of each other. Regarding `Cc1c(-c2cnc(N)c(-c3ccc(C(=O)N[C@H](CO)c4cccc(Cl)c4)c(F)c3)c2)cnn1C(F)F` [Example 264, (S)-4-(2-amino-5-(1-(difluoromethyl)-5-methyl-1H-pyrazol-4-yl)pyridin-3-yl)-N-(1-(3-chlorophenyl)-2-hydroxyethyl)-2-fluorobenzamide], the half-maximal inhibitory concentration (IC50) stood at 0.0431 nM. `Cn1nncc1-c1cnc(N)c(-c2ccc(C(=O)N[C@H](CO)c3cc(F)cc(Br)c3)c(F)c2)c1` [Example 265] yielded an IC50 of 0.031 nM.

Turning to `Cn1nncc1-c1cnc(N)c(-c2ccc(C(=O)N[C@H](CO)c3cccc(Br)c3)c(F)c2)c1` [Example 266, (S)-4-(2-amino-5-(1-methyl-1H-1,2,3-triazol-5-yl)pyridin-3-yl)-N-(1-(3-bromophenyl)-2-hydroxyethyl)-2-fluorobenzamide], half-maximal inhibition (IC50) was put at 0.0487 nM. This IC50 lies about 1.6-fold higher than the previous one.

`Cn1nncc1-c1cnc(N)c(-c2ccc(C(=O)N[C@H](CO)c3cc(F)cc(I)c3)c(F)c2)c1` [Example 267, (S)-4-(2-amino-5-(1-methyl-1H-1,2,3-triazol-5-yl)pyridin-3-yl)-2-fluoro-N-(1-(3-fluoro-5-iodophenyl)-2-hydroxyethyl) benzamide] showed a concentration for half-maximal inhibition (IC50) of 0.0158 nM. Compared with the last molecule, the IC50 is about 3.1-fold lower.

`Cc1nn(C)cc1-c1cnc(N)c(-c2ccc(C(=O)N[C@H](CO)c3cc(F)cc(C(F)F)c3)c(F)c2)c1` [Example 270, (S)-4-(2-amino-5-(1,3-dimethyl-1H-pyrazol-4-yl)pyridin-3-yl)-N-(1-(3-(difluoromethyl)-5-fluorophenyl)-2-hydroxyethyl)-2-fluorobenzamide] showed an IC50 of 0.0467 nM.

In turn, `Cc1c(-c2cnc(N)c(-c3ccc(C(=O)N[C@H](CO)c4cc(F)cc(C(F)F)c4)c(F)c3)c2)cnn1C` [Example 271, (S)-4-(2-amino-5-(1,5-dimethyl-1H-pyrazol-4-yl)pyridin-3-yl)-N-(1-(3-(difluoromethyl)-5-fluorophenyl)-2-hydroxyethyl)-2-fluorobenzamide] gave an IC50 of 0.0308 nM. Against the preceding molecule, the IC50 is about 1.5-fold lower. For `Cc1c(-c2cnc(N)c(-c3ccc(C(=O)N[C@H](CO)c4cc(F)cc(C(F)F)c4)c(F)c3)c2)cnn1C(F)F` [Example 273, (S)-4-(2-amino-5-(1-(difluoromethyl)-5-methyl-1H-pyrazol-4-yl)pyridin-3-yl)-N-(1-(3-(difluoromethyl)-5-fluorophenyl)-2-hydroxyethyl)-2-fluorobenzamide] the value was 0.0482 nM. For `Cc1nn(C(F)F)cc1-c1cnc(N)c(-c2ccc(C(=O)N[C@H](CO)c3cc(F)cc(C(F)F)c3)c(F)c2)c1` [Example 274, (S)-4-(2-amino-5-(1-(difluoromethyl)-3-methyl-1H-pyrazol-4-yl)pyridin-3-yl)-N-(1-(3-(difluoromethyl)-5-fluorophenyl)-2-hydroxyethyl)-2-fluorobenzamide] the value was 0.0312 nM; for `Cc1c(-c2cnc(N)c(-c3ccc(C(=O)N[C@H](CO)c4cccc(C(F)F)c4)c(F)c3)c2)cnn1C(F)F` [Example 275, (S)-4-(2-amino-5-(1-(difluoromethyl)-5-methyl-1H-pyrazol-4-yl)pyridin-3-yl)-N-(1-(3-(difluoromethyl)phenyl)-2-hydroxyethyl)-2-fluorobenzamide], 0.0745 nM; for `Cc1c(-c2cnc(N)c(-c3ccc(C(=O)N[C@H](CO)c4cccc(C(F)F)c4)c(F)c3)c2)cnn1C` [Example 276, (S)-4-(2-amino-5-(1,5-dimethyl-1H-pyrazol-4-yl)pyridin-3-yl)-N-(1-(3-(difluoromethyl)phenyl)-2-hydroxyethyl)-2-fluorobenzamide], 0.0371 nM. For `Cc1nn(C)cc1-c1cnc(N)c(-c2ccc(C(=O)N[C@H](CO)c3cccc(C(F)F)c3)c(F)c2)c1` [Example 277, (S)-4-(2-amino-5-(1,3-dimethyl-1H-pyrazol-4-yl)pyridin-3-yl)-N-(1-(3-(difluoromethyl)phenyl)-2-hydroxyethyl)-2-fluorobenzamide] the value was 0.0707 nM. Turning to `Cc1c(-c2cnc(N)c(-c3ccc(C(=O)N[C@H](C)c4cc(F)cc(S(C)(=O)=O)c4)c(F)c3)c2)cnn1C(F)F` [Example 278, (R)-4-(2-amino-5-(1-(difluoromethyl)-5-methyl-1H-pyrazol-4-yl)pyridin-3-yl)-2-fluoro-N-(1-(3-fluoro-5-(methylsulfonyl)phenyl)ethyl) benzamide], the IC50 came to 0.146 nM. For the molecule `Cn1nncc1-c1cnc(N)c(-c2ccc(C(=O)N[C@H](CO)c3cccc(C(F)F)c3)c(F)c2)c1` [Example 301], the half-maximal inhibitory concentration (IC50) turned out to be 0.0933 nM. This IC50 lies about 1.6-fold lower than the previous one.
